Consider one molecule from US20070043034A1, “Chlorine Ion Uptake Modulators and Uses Thereof” (priority 2005, published 2007).

The test system of experiment [1] is low-Mg^2+ induced recurrent seizures in the intact hippocampus. The experiment is described as follows: Low-Mg2+ ACSF induced recurrent seizures in the intact hippocampus in vitro. It counts as cell-based, rat. The settings on record: phenobarbital 100 μM, bumetanide 10 μM or both, 120 min application; intact hippocampus of P4-6 rats. From the text:
High expression level of the Na^+ K^+-2Cl^− (NKCCl) co-transporter in immature neurons causes the accumulation of chloride ions and a depolarized Cl^− equilibrium potential (ECl). This is linked to a higher seizure propensity and poor EEG response in neonates to the barbiturates and benzodiazepines, conventional anticonvulsant drugs that target Cl^−-permeable GABAA-receptor (GABAA-R) operated channels. […] Recurrent ictal-like seizures were induced by low-Mg^+ ACSF in intact hippocampal preparations in vitro. […] Bumetanide decreased both seizure frequency and seizure power.
FIGS. 11A-11C are graphs of low-Mg^2+πinduced recurrent seizures in the intact hippocampus in vitro. […] First and last seizures from 5 hour recording are shown on an expanded time scale. Right, corresponding power spectra in the 0.1-1000 Hz frequency band. […] Summary data are taken from ten hippocampi. […] Power of the first seizure in each recording was considered as 100%. Data are taken from 18 recordings in 10 preparations from P4-6 rats.
FIGS. 12A-12C are graphs showing low efficiency of phenobarbital in neonatal seizures. FIG. 12A is a graph showing extracellular field potential recording in the CA3 pyramidal cell layer in the intact hippocampus of a P5 rat. Continuous application of low-Mg^2+ ACSF induced recurrent tonic-clonic seizures. […] The right portion corresponds to power spectra in the 0.1-1000 Hz frequency range. […] Data are from ten experiments that were combined. FIG. 12C is a graph showing power of recurrent seizures before, during and after phenobarbital application. Power of the first seizure in each recording was considered as 100%. Seizures were not depressed by phenobarbital indicating its low efficiency.
FIGS. 13A-13C are graphs showing that alteration of Cl^−-transport by bumetanide enhanced efficacy of phenobarbital in neonatal seizures. FIG. 13A is a graph of extracellular field potential recording in the CA3 pyramidal cell layer in the intact hippocampus of a P5 rat. Application of low-Mg^2+ ACSF induced recurrent seizures. […] These are shown on an expanded time scale. The right portion of FIG. 13A is a power spectra of extracellular field potential activity before and during application of drugs. FIG. 13B is a graph showing inter-seizure intervals before, during and after application of drugs. In 75% of experiments seizures were abolished (ISI>120 min) by simultaneous application of phenobarbital and bumetanide. FIG. 13C is a graph showing power of recurrent seizures before, during and after simultaneous application of phenobarbital and bumetanide. Power of the first seizure in each recording was considered as 100%. Seizures were depressed by combination of drugs.
FIGS. 14A and 14B are graphs showing alteration of Cl^−-transport for early-life seizure therapy. […]

Experiment [2] deals with 8.5 mM potassium-induced epileptiform activity in hippocampal slices. The experiment in a line: 8.5 mM K+ induced epileptiform activity in hippocampal slices in vitro. Type of experiment: cell-based, rat. The settings on record: for decrease of averaged power of epileptiform activity: bumetanide 10 μM. An excerpt:
In this example, the effects of phenobarbital on recurrent interictal and ictal-like epileptiform activity in the hippocampal slices in vitro from P7-12 rats were studied. Interictal and ictal-like epileptiform activity are typical parameters studied when analyzing seizure activity in control and treated subjects. Phenobarbital exerts its pharmacological effects by allosteric activation of the GABAA receptor, increasing the duration of chloride ion channel opening, without affecting the frequency of opening or channel conductance. Simultaneous multi-site extracellular field potential records were performed in the CA3 pyramidal cell layer. To induce progressive neuronal firing, a bath application of 8.5 mM K+ was applied to the sections that developed to recurrent interictal and ictal-like epileptiform activities (FIG. 2A-2D). […] The power of extracellular field potential during 8.5 mM K+ (potassium) induced epileptiform activity in 0.1-1000 Hz frequency band, that include both gamma and fast ripple oscillations (FIG. 2A-2D).
In one exemplary method, experimental procedures were carried out on hippocampal slices of postnatal days 5 (P5) to P12 male Wistar rats. Animals were anaesthetized and decapitated and hippocampal slices were prepared by known methods. For example, hippocampal transverse slices were cut using Leica VT-100E vibratome (Leica Microsystems Nussloch GmbH, Germany) and kept in oxygenated aCSF at room temperature at least 1 hr before use. Hippocampal slices posterior to the midtemporal (caudal) part of the hippocampus (Paxinos and Watson, 1986) were used in the study.
In one example, electrophysiological recordings are gathered from individual slices and subsequently transferred to a conventional submerged-type chamber and continuously superfused with, for example, oxygenated aCSF. Whole-cell recordings were generated. Patch electrodes were used, made by known methods. For whole-cell recording in voltage-clamp mode pipettes were filled with a buffered solution.
From the example outlined above, extracellular field potentials were recorded and microelectrodes known in the art were used for simultaneous recordings of multiple unit activity (e.g. MUA; 500 Hz high-pass filter), population field activity in EEG band (1-100 Hz), and fast ripple oscillations (200-600 Hz).).
In one experimental example, bumetanide was tested for suppression of a 8.5 mM potassium-induced epileptiform activity in hippocampal slices from P7-9 and PI0-12 rats. […] Averaged power of epileptiform activity was decreased by 71±2.1% (n=9, p=1.57E-12) in P7-9 rat hippocampal slices and by 41.9±1.5% (n=6, p=2.13E-11) at P10-P12 (FIG. 3C).
In another aspect of this example, pharmaceutical compositions of the present invention may be tested for effects on the GABAA receptor using for example a GABAA-R antagonist before, during or after treatment with the pharmaceutical composition. In one example, GABAA receptor antagonists prevented the effect of bumetanide on power of epileptiform activity in the hippocampal slices from neonatal rats (FIGS. 3B and 3D). […] Here, an inhibition of synchronous network activity by bumetanide treatment in the perinatal hippocampal slices in this in vitro experiment was observed and these affects were partially reversed after treatment with bicuculline.

`CCCCNc1cc(C(=O)O)cc(S(N)(=O)=O)c1Oc1ccccc1` [bumetanide, 3-(aminosulfonyl)-5-(butylamino)-4-phenoxybenzoic acid]: in experiment [1], the seizure frequency result is on record as “decreased”. Besides, the seizure power entry in experiment [1] is “decreased”. The “decrease of averaged power of epileptiform activity” value in experiment [2] (P7-9 rat hippocampal slices, n=9) is recorded as 71±2.1%; in experiment [2] (P10-P12 rat hippocampal slices, n=6) it was 41.9±1.5%. For the same molecule, the “increase of IED frequency” value in experiment [2] (bumetanide 10 μM in the presence of bicuculline 10 μM, P7-9 slices, n=6, p=0.008) was found to be 22.8 ± 6.4%. Also, in experiment [2] (bumetanide 10 μM in the presence of bicuculline 10 μM, P7-9 slices, p=0.8), the “decrease of IED length” value was determined as 2.2±8%. Moreover, the “averaged power of epileptiform discharges” value in experiment [2] (bumetanide 10 μM in the presence of bicuculline 10 μM, p=0.35) was “did not change”. The “effect on epileptiform activity” value in experiment [2] (hippocampal slices from P7-9 rats, bath application phenobarbital 100 μM (n=6) or bumetanide 10 μM (n=10)) was “strongly suppressed interictal and ictal-like epileptiform activity”; in experiment [2] (hippocampal slices from P10-12 rats, bath application phenobarbital 100 μM (n=7) or bumetanide 10 μM (n=6)) it was “depressed ictal-like epileptiform activity”.
